Assay results: patent US11795163B2, “Compound for inhibiting nicotinamide phosphoribosyltransferase and composition containing same” (CHECKMATE THERAPEUTICS INC., priority 2016, dated 2023)
Values belong to the compound of their own block, whether it stands above or below them.

Experiments:
H322 = test: Therapeutic effect of cancer cell line, IC50; format: cell-based; settings: NCI-H322; H322, NAPRT expression negative
H661 = test: Therapeutic effect of cancer cell line, IC50; format: cell-based; settings: Homo sapiens, NCI-H661; H661, NAPRT expression negative
H1115 = test: Therapeutic effect of cancer cell line, IC50; format: cell-based; settings: H1115, NAPRT expression negative
hERG K+ channel = hERG K+ channel (Homo sapiens, UniProt Q12809); test: hERG K+ channel activity evaluation, patch clamp
hERG K+ channel, sequence (Q12809 whole entry): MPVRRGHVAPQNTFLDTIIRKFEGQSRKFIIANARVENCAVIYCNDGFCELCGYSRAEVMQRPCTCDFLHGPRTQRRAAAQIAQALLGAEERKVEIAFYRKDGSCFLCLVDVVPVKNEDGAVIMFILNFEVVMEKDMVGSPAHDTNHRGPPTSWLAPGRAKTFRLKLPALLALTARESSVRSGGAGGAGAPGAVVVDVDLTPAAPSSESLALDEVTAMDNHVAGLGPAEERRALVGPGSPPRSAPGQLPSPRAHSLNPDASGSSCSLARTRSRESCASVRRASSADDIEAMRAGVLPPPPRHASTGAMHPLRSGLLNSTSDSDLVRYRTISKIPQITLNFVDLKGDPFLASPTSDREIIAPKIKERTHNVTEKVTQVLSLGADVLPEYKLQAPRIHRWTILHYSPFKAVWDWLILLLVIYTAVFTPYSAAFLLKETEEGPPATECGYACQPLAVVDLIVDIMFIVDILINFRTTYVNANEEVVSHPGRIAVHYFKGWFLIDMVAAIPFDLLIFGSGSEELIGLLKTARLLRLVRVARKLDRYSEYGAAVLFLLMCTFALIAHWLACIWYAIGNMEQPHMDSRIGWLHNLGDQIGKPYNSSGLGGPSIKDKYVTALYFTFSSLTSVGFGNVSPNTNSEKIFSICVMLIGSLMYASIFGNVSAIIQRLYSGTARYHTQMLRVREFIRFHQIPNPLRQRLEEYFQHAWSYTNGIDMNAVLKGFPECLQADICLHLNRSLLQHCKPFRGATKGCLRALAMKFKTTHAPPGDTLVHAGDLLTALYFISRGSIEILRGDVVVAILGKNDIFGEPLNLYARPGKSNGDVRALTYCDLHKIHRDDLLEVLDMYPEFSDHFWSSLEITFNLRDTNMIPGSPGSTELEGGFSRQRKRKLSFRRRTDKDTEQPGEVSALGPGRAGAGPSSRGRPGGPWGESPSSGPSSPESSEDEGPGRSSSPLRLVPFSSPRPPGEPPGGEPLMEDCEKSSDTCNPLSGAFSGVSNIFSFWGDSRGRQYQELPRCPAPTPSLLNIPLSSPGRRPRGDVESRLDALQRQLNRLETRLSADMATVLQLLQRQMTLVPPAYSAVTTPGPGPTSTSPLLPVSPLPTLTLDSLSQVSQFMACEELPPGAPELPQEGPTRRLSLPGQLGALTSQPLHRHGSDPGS

hERG channel = hERG channel (Homo sapiens, UniProt Q12809); test: hERG screening by fluorescence polarization with red fluorescent hERG channel ligand tracer; format: binding; settings: probe high affinity red fluorescent hERG channel ligand tracer, mean±standard deviation, read-out: % inhibition capacity
hERG channel, sequence (Q12809 whole entry): as above

[1] = Microsome stability evaluation; format: in vitro ADME, human; settings: after 30 minutes, 1 μM compound, 0.3 mg/ml microsomal protein, 1 mM NADPH
Procedure: (§1) Metabolic stability was assessed using human liver microsomes and mouse liver microsomes. Specifically, pooled male mouse liver microsomes (in-house preparation per SOP), pooled human liver microsomes (XENOTECH; […] The reaction was stopped by addition of acetonitrile ([…]) containing the same volume of internal standard. The precipitated proteins were removed by centrifugation and the supernatant was analyzed by LC/MS-MS method. […] Residual % parent compound=(peak area at time x/peak area at TO)×100.

[2] = Microsome stability evaluation; format: in vitro ADME, mouse; settings: after 30 minutes, 1 μM compound, 0.3 mg/ml microsomal protein, 1 mM NADPH
Procedure: as §1

H2122 = test: Therapeutic effect of cancer cell line, IC50; format: cell-based; settings: Homo sapiens, NCI-H2122; H2122, NAPRT expression positive
H1993 = test: Therapeutic effect of cancer cell line, IC50; format: cell-based; settings: Homo sapiens, NCI-H1993; H1993, NAPRT expression positive
HBEC30 = test: Therapeutic effect of cancer cell line, IC50; format: cell-based; settings: HBEC30, NAPRT expression positive
H1299 = test: Therapeutic effect of cancer cell line, IC50; format: cell-based; settings: Homo sapiens, NCI-H1299; H1299, NAPRT expression positive
H1975 = test: Therapeutic effect of cancer cell line, IC50; format: cell-based; settings: Homo sapiens, NCI-H1975; H1975, NAPRT expression positive
H2030 = test: Therapeutic effect of cancer cell line, IC50; format: cell-based; settings: Homo sapiens, NCI-H2030; H2030, NAPRT expression positive
liver cell (THLE-3) = test: Toxicity evaluation in normal cell line, cell viability; format: cell-based; settings: for toxicity: THLE-3, very high concentrations of 50 μM; for IC50: THLE3, THLE-3, FIG. 26
liver cell (THLE-2) = test: Toxicity assessment in normal cell line, cell viability; format: cell-based; settings: for toxicity: THLE-2, very high concentrations of 50 μM; for IC50: Homo sapiens, THLE-2, FIG. 25
H322 cell line = test: Toxic mechanism in cancer cell lines: intracellular NAD, ATP and total protein; format: cell-based; settings: H322, 2.5 μM
Procedure: To investigate the direct effect of the compound according to the present invention on the catalytic activity of NamPT enzyme, after treating H322 cell line with 2.5 μM of the compound of the Synthesis Example 4, the intracellular NAD, ATP and total protein was measured, with the results depicted in FIG. 20.

[3] = test system: H322, H661, H1155, H1993, H1975, H2030, H1299, H2122 and HBEC30; test: Viability of various cancer cell lines by concentration (NAPRT positive vs negative); format: cell-based
[4] = test system: retinal pigment epithelium cell (RPE); test: Toxicity assessment in normal cell line, cell viability; format: cell-based; settings: high concentrations
Primary cardiomyocyte = test: as above; format: cell-based; settings: high concentrations

Compound: O=C(NCc1ccc(-c2nc3cc4ccccc4cc3o2)cc1)c1cccnc1 [A4265, N-(4-(naphtho[2,3-d]oxazol-2-yl)benzyl)nicotinamide]
IC50 (hERG K+ channel): > 100 µM
inhibition at 10 µM (hERG channel): 7.44 ± 3.12%
Human(%) parent compound remaining [1]: 81.11 ± 4.76%
IC50 (H322): 3 nM
Mouse(%) parent compound remaining [2]: 78.24 ± 6.49%
IC50 (H661): < 30 nM
IC50 (H1115): 10 nM

Compound: O=C(NCc1ccc(-c2nc3ccc(Cl)cc3o2)cc1)c1cccnc1 [A4266, N-(4-(6-chlorobenzo[d]oxazol-2-yl)benzyl)nicotinamide]
IC50 (hERG K+ channel): > 100 µM
inhibition at 10 µM (hERG channel): < 1%
Human(%) parent compound remaining [1]: >99%
IC50 (H322): 30 nM
Mouse(%) parent compound remaining [2]: 89.3 ± 3.12%
IC50 (H661): 100 nM
IC50 (H1115): 30 nM

Compound: Cc1ccc2nc(-c3ccc(CNC(=O)c4ccccc4)cc3)oc2c1 [A4303]
IC50 (H322): 10000 nM
IC50 (H661): 10000 nM
IC50 (H1115): 10000 nM

Compound: COC(=O)c1ccc(NC(=O)c2cccnc2)cc1 [B1380]
IC50 (H2122): > 12.5 µM
IC50 (H322): 6250 nM
IC50 (H1993): > 12.5 µM
IC50 (H661): 2500 nM
IC50 (HBEC30): > 12.5 µM

Compound: CCc1nnc2sc(-c3ccc(CNC(=O)c4cccnc4)cc3)nn12 [B1423]
IC50 (H2122): > 100 µM
IC50 (H322): 600 nM
IC50 (H1993): > 100 µM
IC50 (H1299): > 100 µM
IC50 (H661): > 1000 nM
IC50 (H1115): 1000 nM
IC50 (HBEC30): > 100 µM
IC50 (H1975): > 100 µM
IC50 (H2030): > 100 µM

Compound: Cc1nnc2sc(-c3ccc(CNC(=O)c4cccnc4)cc3)nn12 [B1468]
IC50 (H2122): > 100 µM
toxicity (liver cell (THLE-3)): little toxicity
IC50 (H322): < 24 nM
IC50 (H1993): > 100 µM
IC50 (H1299): > 100 µM
IC50 (H661): > 1000 nM
toxicity (liver cell (THLE-2)): little toxicity
IC50 (H1115): 3160 nM
IC50 (HBEC30): > 100 µM
IC50 (H1975): > 100 µM
IC50 (H2030): > 100 µM

Compound: O=C(NCc1ccc(-c2nc3ncccc3o2)cc1)c1cccnc1 [B1472]
IC50 (H322): 300 nM

Compound: COc1ccc2oc(-c3ccc(CNC(=O)c4cccnc4)cc3)nc2c1 [B1474]
IC50 (H322): 50 nM

Compound: O=C(Nc1ccc(C(=O)OC2CCCCC2)cc1)c1cccnc1 [B1477]
IC50 (H2122): 31.6 µM
toxicity (liver cell (THLE-3)): little toxicity
IC50 (H322): < 24 nM
IC50 (H1993): < 100 µM
IC50 (H1299): < 100 µM
IC50 (H661): > 1000 nM
toxicity (liver cell (THLE-2)): little toxicity
IC50 (H1115): > 1000 nM
IC50 (HBEC30): > 100 µM
IC50 (H1975): > 100 µM
IC50 (H2030): < 100 µM

Compound: CC(C)c1ccc2oc(-c3ccc(NC(=O)c4cccnc4)cc3)nc2c1 [B1479]
IC50 (H322): 5000 nM

Compound: O=C(Nc1ccc(C(=O)c2cc3ccccc3o2)cc1)c1cccnc1 [B1484]
IC50 (H322): 50 nM

Compound: O=C(Nc1ccc(-c2nn3cnnc3s2)cc1)c1cccnc1 [B1523]
IC50 (H322): 1560 nM

Compound: COC(=O)c1ccc(CCNC(=O)c2ccc3nccn3c2)cc1 [B1531]
IC50 (H322): 6250 nM

Compound: Cc1ccc(-c2nc3cc(NC(=O)c4cccnc4)ccc3o2)cc1C [B1716]
IC50 (H322): 12500 nM

Compound: O=C(NCCNC(=O)c1nc(-c2cccs2)no1)c1cccnc1 [B1863]
IC50 (H322): 12500 nM

Compound: O=C(Nc1ccc2c(c1)CN(C(=O)/C=C/c1cccnc1)CC2)c1ccncc1 [B1963]
IC50 (H322): 390 nM

Compound: CC(C)c1cc(C(F)(F)F)n2nc([C@H]3CCN(C(=O)/C=C/c4cccnc4)C3)cc2n1 [B1964]
IC50 (H322): 200 nM

Compound: Cc1nccn1-c1ccc(CNC(=O)c2cccnc2)cc1 [B1967]
IC50 (H322): 12500 nM

Compound: O=C(/C=C/c1cccnc1)N1CCN(Cc2csc(-c3ccco3)n2)CC1 [B1976]
IC50 (H322): 10000 nM

Compound: O=C(NCc1ccc(S(=O)(=O)N2CCOCC2)cc1)c1cccnc1 [B1977]
IC50 (H322): 6250 nM

Compound: O=C(NCc1ccc(S(=O)(=O)N2CCCCC2)cc1)c1cccnc1 [B1981]
IC50 (H322): 3100 nM

Compound: Cn1/c(=N/NC(=O)/C=C/c2cccnc2)sc2ccccc21 [B1983]
IC50 (H322): 300 nM

Compound: O=C(/C=C/c1cccnc1)NCCCCC1CCN(C(=O)c2ccccc2)CC1 [FK866, N-[4-(1-benzoyl-4-piperidinyl)butyl]-3-(3-pyridinyl)-2E-propenamide]
Human(%) parent compound remaining [1]: 25.48 ± 1.45%
IC50 (liver cell (THLE-3)): ~50 nM
difference in LD50 values between the NAPRT positive cell line and the negative cell line [3]: approximately 10 times
cytotoxicity (cell viability) [4]: unpredictable cytotoxicity
Mouse(%) parent compound remaining [2]: 10.26 ± 0.91%
IC50 (liver cell (THLE-2)): ~50 nM
cytotoxicity (cell viability) (liver cell (THLE-2); THLE-2, high concentrations): unpredictable cytotoxicity
cytotoxicity (cell viability) (Primary cardiomyocyte): unpredictable cytotoxicity

Compound: O=C(NCc1ccc(S(=O)(=O)c2cc(F)cc(F)c2)cc1)c1ccc2nccn2c1 [GNE617, N-(4-((3,5-difluorophenyl)sulfonyl)benzyl)imidazo[1,2-a]pyridine-6-carboxamide, reference compound]
IC50 (liver cell (THLE-3)): ~50 nM
IC50 (liver cell (THLE-2)): ~50 nM

More lines, main results first:

IC50 (H322): 30 nM
IC50 (H661): < 300 nM
IC50 (H1115): < 100 nM
Compound: O=C(NCc1ccc(-c2nc3ccc([N+](=O)[O-])cc3o2)cc1)c1cccnc1 [A4261]

IC50 (H322): 30 nM
IC50 (H661): 30000 nM
IC50 (H1115): < 100 nM
Compound: O=C(NCc1ccc(-c2nc3cc(-c4ccccc4)ccc3o2)cc1)c1cccnc1 [A4262]

IC50 (H322): < 30 nM
IC50 (H661): 1000 nM
IC50 (H1115): < 300 nM
Compound: CC(C)(C)c1ccc2nc(-c3ccc(CNC(=O)c4cccnc4)cc3)oc2c1 [A4263]

IC50 (H322): 30 nM
IC50 (H661): < 300 nM
IC50 (H1115): < 300 nM
Compound: Cc1ccc2oc(-c3ccc(CNC(=O)c4cccnc4)cc3)nc2c1 [A4275]

IC50 (H322): 100 nM
IC50 (H661): 100 nM
IC50 (H1115): < 300 nM
Compound: CCc1ccc2nc(-c3ccc(CNC(=O)c4cccnc4)cc3)oc2c1 [A4302]

IC50 (H322): < 1560 nM
Compound: CC(C)OC(=O)c1ccc(NC(=O)c2cccnc2)cc1 [B1416]

IC50 (H322): 60 nM
Compound: O=C(NCc1ccc(-c2nc3ccccc3s2)cc1)c1cccnc1 [B1469]

IC50 (H322): 60 nM
Compound: O=C(NCc1ccc(-c2nc3ccccc3o2)cc1)c1cccnc1 [B1470]

IC50 (H2122): > 100 µM
IC50 (H322): < 24 nM
IC50 (H1993): > 100 µM
IC50 (H1299): 100 µM
IC50 (H661): 700 nM
IC50 (H1115): > 1000 nM
IC50 (HBEC30): > 100 µM
IC50 (H1975): > 100 µM
IC50 (H2030): > 100 µM
Compound: O=C(NCc1ccc(-c2nc3cnccc3o2)cc1)c1cccnc1 [B1471, N-(4-(oxazolo[4,5-c]pyridin-2-yl)benzyl)nicotinamide]
amount of ATP (H322 cell line): remarkably decreased
amount of NAD (H322 cell line): remarkably decreased
total amount of protein compared to the negative control (H322 cell line): decrease

IC50 (H322): 30 nM
Compound: CCc1nnc2sc(-c3ccc(NC(=O)c4cccnc4)cc3)nn12 [B1485]

IC50 (H322): 12500 nM
Compound: O=C(NCCNC(=O)c1nc(-c2ccc(Cl)cc2)no1)c1cccnc1 [B1856]

IC50 (H322): 10000 nM
Compound: Cc1ccc(-c2noc(C(=O)NCCNC(=O)c3cccnc3)n2)cc1 [B1857]

IC50 (H322): 10000 nM
Compound: COc1ccc(-c2noc(C(=O)NCCNC(=O)c3cccnc3)n2)cc1 [B1866]

IC50 (H322): 10000 nM
Compound: O=C(NCCNC(=O)c1ccc2ccccc2n1)c1cccnc1 [B1872]

IC50 (H322): 5000 nM
Compound: O=C(NCCNC(=O)c1nc2ccccc2s1)c1cccnc1 [B1873]

IC50 (H322): 1200 nM
Compound: O=C(/C=C/c1cccnc1)NCCCN1CCc2ccccc21 [B1975]

IC50 (H322): 1200 nM
Compound: O=C(NCc1ccc(N2CCCCC2)cc1)c1cccnc1 [B1978]

IC50 (H322): 780 nM
Compound: O=C(NCc1ccc(OCc2ccccn2)cc1)c1cccnc1 [B1979]

IC50 (H322): 12000 nM
Compound: CCN(CC)Cc1ccc(CNC(=O)c2cccnc2)cc1 [B1982]

Human(%) parent compound remaining [1]: 0.101 ± 0.028%
Mouse(%) parent compound remaining [2]: 3.189 ± 1.078%
Compound: O=C1CC2(CCCC2)CC(=O)N1CCCCN1CCN(c2ncccn2)CC1 [Buspirone, reference compound]

IC50 (H322): 1000 nM
IC50 (H661): < 1000 nM
IC50 (H1115): < 3100 nM
Compound: CCc1ccc2oc(-c3ccc(CNC(=O)c4cccnc4)cc3)nc2c1 [Drug3, N-(4-(5-ethylbenzo[d]oxazol-2-yl)benzyl)nicotinamide]
